{"source": "patent US20150080462A1", "about": "“COMPOSITIONS AND METHODS FOR THE TREATMENT OR PREVENTION OF DISORDERS RELATING TO OXIDATIVE STRESS” (THE JOHNS HOPKINS UNIVERSITY, priority 2005, published 2015)", "key": {"Nrf2": {"test_system": "Nrf2", "conditions": "cortical neurons; t-BuOOH 60 μM, NMDA 100 μM, glutamate 300 μM; up to 360 minutes"}, "primary cortical neurons [1]": {"test_system": "primary cortical neurons", "assay": "Neuronal viability by MTT assay (t-BuOOH, NMDA, glutamate with or without t-BHQ)", "conditions": "24 hours"}, "caspase-3": {"test_system": "caspase-3", "assay": "Caspase-3/7 assay in cortical neurons", "assay_type": "cell-based, mouse", "conditions": "for caspase-3 activity: cortical neurons, t-BuOOH 60 μM, NMDA 100 μM, glutamate 300 μM"}, "primary cortical neurons [2]": {"test_system": "primary cortical neurons"}, "nrf2−/− and nrf2+/+ mice": {"test_system": "nrf2−/− and nrf2+/+ mice", "assay": "LPS induced septic shock mortality, NAC pretreatment", "assay_type": "in vivo", "conditions": "LPS 1.5 mg per mouse"}, "[3]": {"test_system": "OVA challenged Nrf2−/− mice", "assay": "BAL fluid inflammatory cell counts in OVA challenged mice pretreated with NAC", "method": "Mice (n=8) were anesthetized with 0.3 ml of pentobarbital (65 mg/ml) and the trachea was cannulated. […] BAL fluid was collected with 1 ml followed by 2×1 ml of sterile PBS containing 5 mM EDTA, DTT (5 mM) and PMSF (5 mM). The BAL fluid was immediately centrifuged at 1500×g. The total cell count was measured, and cytospin preparation (Shandon Scientific Inc., Cheshire, UK) was performed. Cells were stained with Diff-Quick reagent, and a differential count of 300 cells was performed using standard morphological criteria (Saltini C et al. Am Rev Respir Dis 130:650-658.1984).\nMice (male, 8 weeks old) were sensitized on day 0 by i.p. injection (100 μl/mouse) with 20 μg of ovalbumin complexed with aluminum potassium sulfate. On day 14, mice were sensitized a second time with 100 μg OVA. On days 24, 26 and 28, the mice were anesthetized by i.p. injection of 0.1 ml of a mixture of ketamine (10 mg/ml) and xylazine (1 mg/ml) diluted in sterile PBS and challenged with 200 μg of OVA (in 100 μl sterile PBS) by intratracheal instillation. The control groups received sterile PBS with aluminum potassium sulfate by i.p. route on day 0 and 14, and 0.1 ml of sterile PBS on day 24, 26 and 28. Mice were euthanized at different time points after OVA challenge for BAL, RNA isolation, histopathology, and for AHR measurements.\nNrf2^+/+ and Nrf2^−/− mice (6 mice in each group) were sensitized with OVA by following the procedure as already described. […] Twenty-four hours after challenge, BAL fluids and lung tissues were harvested and analyzed as above. The experiment was repeated two times."}, "[4]": {"test_system": "OVA challenged Nrf2−/− mice", "assay": "Lung histology (H&E) of OVA challenged mice pretreated with NAC", "conditions": "OVA challenged (1st challenge) Nrf2−/− mice, NAC 7 days before challenge", "method": "Mice (male, 8 weeks old) were sensitized on day 0 by i.p. injection (100 μl/mouse) with 20 μg of ovalbumin complexed with aluminum potassium sulfate. On day 14, mice were sensitized a second time with 100 μg OVA. On days 24, 26 and 28, the mice were anesthetized by i.p. injection of 0.1 ml of a mixture of ketamine (10 mg/ml) and xylazine (1 mg/ml) diluted in sterile PBS and challenged with 200 μg of OVA (in 100 μl sterile PBS) by intratracheal instillation. The control groups received sterile PBS with aluminum potassium sulfate by i.p. route on day 0 and 14, and 0.1 ml of sterile PBS on day 24, 26 and 28. […]\nThe lungs were inflated with 0.6 ml of buffered formalin (10%), fixed for 24 h at 4° C., prior to histochemical processing. […] The number of PAS positive cells was counted on longitudinal lung sections of the proximal airways. The percent PAS positive cells was determined by counting the mucus positive cells and unstained epithelial cells in the proximal airways under the microscope with a grid at 100× magnification. […] The data are expressed as mean±SEM.\nNrf2^+/+ and Nrf2^−/− mice (6 mice in each group) were sensitized with OVA by following the procedure as already described. […] Twenty-four hours after challenge, BAL fluids and lung tissues were harvested and analyzed as above. […]"}, "HO-2": {"test_system": "HO-2", "assay": "HO-2 protein expression in cortical neurons (Western blot)", "conditions": "8 h"}, "[5]": {"test_system": "NADPH-cytochrome P450 reductase (CP450R)", "assay": "NADPH-cytochrome P450 reductase protein expression in cortical neurons (Western blot)", "conditions": "8 h"}, "[6]": {"test_system": "mouse cortical neuronal cells", "assay": "H2O2-induced cytotoxicity in primary neurons (MTT)", "assay_type": "cell-based", "conditions": "SnPPIX 5 μM", "protocol": "After 10 d in culture, mouse primary neurons were pre-treated with EGb 761 (10, 50, or 100 μg/ml) for 6 h, and then treated for 18 h with H2O2 (20 μM) or vehicle (control) with or without 5 μM HO inhibitor (SnPPIX, Porphyrin Products, Inc., (Logan, Utah). Cell survival was evaluated by the 3-(4,5-dimethylthiazol-2-yl)-2,5-diphenyl tetrazolium bromide (MTT) colorimetric assay.\n(§1) Neuronal survival was assessed and quantified with the MTT colorimetric assay. […] The optical density was determined at 570 nm. Cell viability of the vehicle-treated control group was defined as 100%, and MTT optical density in the treated groups was expressed as a percent of control."}, "[7]": {"test_system": "mouse cortical neuronal cells", "assay": "Glutamate-induced cytotoxicity in primary neurons (MTT)", "assay_type": "cell-based", "conditions": "SnPPIX 5 μM; CHX 10 μM", "protocol": "Mouse primary neurons cultured for 14 d were pre-treated for 6 h with EGb 761 (100 μg/ml). […] Neurons were incubated for an additional 18 h, and the MTT assay was used to estimate the cell survival. Experimental conditions were conducted in quadruplicate and repeated four times with different batches of primary cultures.\nas §1"}, "HO-1": {"test_system": "HO-1", "assay": "HO-1 protein expression in cortical neurons (Western blot)", "conditions": "cortical neurons pretreated 1 h with CHX or ATD, then 100 μg/ml EGb 761"}, "NF-κB": {"test_system": "NF-κB", "assay_type": "cell-based, mouse", "conditions": "nrf2−/− MEFs pretreated 1 h with NAC (10 mM) or GSH-MEE (1 mM), then LPS (0.5 μg/ml) or TNF-α (10 ng/ml) 3 h", "method": "MEFs (60-80% confluence) were transfected with luciferase reporter genes (pNF-κB-luc or ISRE-Tk-Luc vector) by using Lipofectamine2000 (Invitrogen). The Renilla-luciferase reporter gene (pRL-TK) was co-transfected for normalization. After the treatments, the reporter gene activity was measured using the Dual Luciferase Assay System (Promega). All transfection experiments were carried out in triplicate wells and were repeated separately at least 3 times."}}, "note": "Entries after “also recorded” stand apart in the source; their conditions may differ. *1 amine or outer side, *2 acyl side, *3 side chain or, on linkers, in order; H or OH if unused. Where a SMILES comes first, the peptide text is derived from it. Bridges are numbered along the chain shown (N, C = ends). Roman numbers before positions name the chains, in order. [ ]: non-standard residue; d: D form. Actinocin(9to1) = Cc1c2oc3c(C)ccc(C(=O)[*:1])c3nc-2c(C(=O)[*:2])c(N)c1=O; NMeV = CN[C@H](C(=O)O)C(C)C; Sar = CNCC(=O)O", "data": [{"smiles": "CN[C@H](CC(=O)O)C(=O)O", "note": "[NMDA]", "values": [{"measurement": "Nrf2 in the cytosolic fraction", "setting": "Nrf2", "result": "no effect"}, {"measurement": "Nrf2 in the nuclear fraction", "setting": "Nrf2", "result": "no effect"}, {"measurement": "number of viable neurons vs untreated control", "setting": "primary cortical neurons [1]; t-BuOOH 60 μM, NMDA 100 μM, glutamate 300 μM", "result": "significantly decreased"}, {"measurement": "caspase-3 activity", "setting": "caspase-3", "result": "induced an increase"}]}, {"smiles": "CC(C)(C)c1cc(O)ccc1O", "note": "[t-BHQ, tert-butylhydroquinone]", "values": [{"measurement": "neuronal viability, compound alone", "setting": "primary cortical neurons [2]", "result": "no effect"}, {"measurement": "decrease in viable neurons caused by t-BuOOH, NMDA or glutamate", "setting": "primary cortical neurons [1]; t-BHQ 20 μM", "result": "abolished"}, {"measurement": "increase in caspase-3 activity evoked by t-BuOOH, NMDA and glutamate", "setting": "caspase-3; t-BHQ 20 μM", "result": "prevent the increase"}, {"measurement": "basal levels of caspase-3 activity", "setting": "caspase-3; t-BHQ alone", "result": "no effect"}]}, {"smiles": "CC(=O)N[C@@H](CS)C(=O)O", "note": "[NAC, N-acetyl L-cysteine]", "values": [{"measurement": "LPS induced mortality (% survival) vs vehicle-pretreated mice", "setting": "nrf2−/− and nrf2+/+ mice; nrf2−/− and nrf2+/+ mice, NAC ip 500 mg/kg daily 4 days, 5 days", "result": "improved survival"}, {"measurement": "mice surviving LPS induced septic shock", "setting": "nrf2−/− and nrf2+/+ mice; nrf2−/− mice, NAC 500 mg/kg ip daily 4 days, saline-pretreated all died within 56 h", "result": 40, "unit": "%"}, {"measurement": "protection against LPS induced septic shock", "setting": "nrf2−/− and nrf2+/+ mice; wild-type mice, NAC 500 mg/kg 4 days", "result": "modest protection"}, {"measurement": "other cell types (macrophages, neutrophils, lymphocytes, epithelial cells) in BAL fluid", "setting": "[3]; 24 h post 1st OVA challenge, NAC treatment", "result": "did not have any significant inhibitory effect"}, {"measurement": "inflammatory cells in the BAL fluid", "setting": "[3]; Nrf2−/− OVA mice, NAC pretreatment 7 days before 1st OVA challenge", "result": "significantly (*) reduced"}, {"measurement": "total and differential cell counts in saline-challenged mice", "setting": "[3]; saline-challenged mice treated with NAC vs untreated", "result": "did not differ"}, {"measurement": "infiltration of inflammatory cells in the peribronchial and perivascular region", "setting": "[4]", "result": "marked reduction; also recorded: significant reduction"}]}, {"smiles": "CC(C)(C)[C@]1(O)CC2OC(=O)CC23C(=O)OC2OC(=O)[C@H](O)C231", "note": "(some centres unmarked) [bilobalide]", "values": [{"measurement": "HO-2 expression level", "setting": "HO-2", "result": "do not affect"}, {"measurement": "NADPH-cytochrome P450 reductase (CP450R) protein expression", "setting": "[5]", "result": "do not affect"}]}, {"smiles": "N[C@@H](CCC(=O)O)C(=O)O", "note": "[glutamate]", "values": [{"measurement": "Nrf2 in the cytosolic fraction", "setting": "Nrf2", "result": "no effect"}, {"measurement": "Nrf2 in the nuclear fraction", "setting": "Nrf2", "result": "no effect"}, {"measurement": "caspase-3 activity", "setting": "caspase-3", "result": "induced an increase"}]}, {"smiles": "C=Cc1c2[n-]c(c1C)/C=c1\\[n-]/c(c(C)c1C=C)=C\\c1[n-]c(c(CCC(=O)O)c1C)C=c1[n-]/c(c(C)c1CCC(=O)O)=C\\2.[Sn+4]", "note": "[SnPPIX, Tin Protoporphyrin IX]", "values": [{"measurement": "protective effect of EGb 761 against H2O2 in presence of HO inhibitor", "setting": "[6]", "result": "blocked the protective effect"}, {"measurement": "protective effect of EGb 761 against glutamate in presence of inhibitor", "setting": "[7]", "result": "prevented the protective effect"}]}, {"smiles": "CC(C)(C)OO", "note": "[t-BuOOH, test-butyl hydroperoxide]", "values": [{"measurement": "Nrf2 in the cytosolic fraction", "setting": "Nrf2", "result": "decreased to below the basal level after 30 minutes"}, {"measurement": "Nrf2 in the nuclear fraction", "setting": "Nrf2", "result": "elevated at 30 min"}, {"measurement": "caspase-3 activity", "setting": "caspase-3", "result": "induced an increase"}]}, {"smiles": "Cc1c2oc3c(C)ccc(C(=O)N[C@@H]4C(=O)N[C@H](C(C)C)C(=O)N5CCC[C@H]5C(=O)N(C)CC(=O)N(C)[C@@H](C(C)C)C(=O)O[C@@H]4C)c3nc-2c(C(=O)N[C@@H]2C(=O)N[C@H](C(C)C)C(=O)N3CCC[C@H]3C(=O)N(C)CC(=O)N(C)[C@@H](C(C)C)C(=O)O[C@@H]2C)c(N)c1=O", "note": "[ATD, actinomycin D] (I: T[dV]P[Sar][NMeV] / II: T[dV]P[Sar][NMeV]; ester I:1-I:C, II:1-II:C; linker I:N-II:N via Actinocin(9to1))", "values": [{"measurement": "HO-1 induction by EGb 761 in presence of inhibitor", "setting": "HO-1", "result": "completely block"}]}, {"smiles": "CCOC(=O)CNC(=O)[C@H](CS)NC(=O)CC[C@H](N)C(=O)O", "note": "[GSH-monoethyl ester]", "values": [{"measurement": "NF-κB mediated reporter activity elicited by LPS or TNF-α", "setting": "NF-κB", "result": "significantly attenuated"}]}, {"smiles": "C[C@@H]1C[C@@H]([C@H](O)CC2CC(=O)NC(=O)C2)C(=O)[C@@H](C)C1", "note": "[CHX, cycloheximide]", "values": [{"measurement": "HO-1 induction by EGb 761 in presence of inhibitor", "setting": "HO-1", "result": "completely block"}, {"measurement": "protective effect of EGb 761 against glutamate in presence of inhibitor", "setting": "[7]", "result": "prevented the protective effect"}]}]}
